Assay results published in US8846761B2, “Method for treating pancreatitis” (Michigan Life Therapeutics, LLC, priority 2010, dated 2014).
Like-named read-outs stand apart in the source and are kept apart here.

Columns and labels:
CYP3A4 [1] = target: T1, CYP3A4 (Homo sapiens, UniProt P08684); conditions: cited from earlier work
[2] = system: patient with triglyceride level of 1030 mg/dl; assay: Example 5: patient with triglyceride level of 1030 mg/dl treated with gemcabene; assay type: in vivo, human; conditions: 300 mg once per day plus low fat diet, 12-week follow-up, initial 1030 mg/dl
Method: A patient, as part of a routine annual examination, has blood tests which reveal that the patient has an LDL-C level of 200 mg/dl and a triglyceride level of 1030 mg/dl. This high triglyceride level places them at high risk for developing pancreatitis. According to the […] guidelines, the patient's treatment is initially targeted to address the high triglyceride level. The patient is administered gemcabene at a dose of 300 mg once per day and is placed on a low fat diet.

[3] = system: patients having TG levels >500 mg/dL; assay: Randomized, double-blind, placebo-controlled study of gemcabene, subset of patients entering with TG >500 mg/dL; assay type: in vivo, human; conditions: for ApoA-I average % increase / ApoB average % decrease / ApoC-III average % decrease / HDL-C average % increase / VLDL-C average % decrease / hs-CRP average % decrease / Triglycerides average % decrease: patients TG >500 mg/dL; for Triglycerides average % decrease: once daily for 12 weeks, serum, change from baseline
Method: A randomized, double-blind, placebo-controlled study was conducted to evaluate the efficacy and tolerability of gemcabene in patients with HDL cholesterol levels <35 mg/dL. Patients were stratified based on whether mean serum triglyceride (TG) levels were <200 mg/dL or ≧200 mg/dL. Within each TG stratum, patients were randomized to receive either 150, 300, 600 or 900 mg of gemcabene, or placebo, once daily for 12 weeks.
Patients were evaluated for percent change from baseline levels of serum HDL cholesterol, serum LDL cholesterol, TG, apolipoproteins A-I, A-II, B, C-III, and E, hs CRP and non-HDL cholesterol levels. Blood samples were measured at screening, randomization and at −8, −4, −2 weeks, baseline, and 2, 4, and 12 weeks after the start of study medication. In addition, HDL-C, LDL-C and TG levels were measured at 2 and 4 weeks before starting study medication. Bays H. E. et al. Am J Cardiol (2003) vol.
When the data were examined for the subset of patients entering the study having TG levels greater than 500 mg/dL, an unexpectedly large decrease in TG levels for those patients treated with gemcabene was seen as compared with the broader group of patients having triglyceride levels ≧200 mg/dL. Twenty-seven patients having TG levels >500 mg/dL were evaluated in the study.
FIGS. 2a-e, 3a-e, 4a-e, 5a-e, 6a-e, 7a-e and 8a-e are graphs illustrating the serum levels of TG, HDL-C, ApoA-I, ApoC-III, VLDL-C, hs CRP, and ApoB for individual patients at baseline and at 12 weeks post treatment with doses of 150, 300, 600, and 900 mg/day of gemcabene, or placebo.
Tables 1-7 provide the data expressed as average percent and mean percent decrease or increase, as appropriate, for each of these parameters at each of the doses tested.

[4] = system: patients having triglyceride levels ≧200 mg/dL; conditions: data reported in Bays et al., cited from earlier work
CYP3A4 [5] = target: T1, CYP3A4; conditions: simvastatin (a CYP3A4 substrate); cited from earlier work

T1 sequence (P08684 whole entry): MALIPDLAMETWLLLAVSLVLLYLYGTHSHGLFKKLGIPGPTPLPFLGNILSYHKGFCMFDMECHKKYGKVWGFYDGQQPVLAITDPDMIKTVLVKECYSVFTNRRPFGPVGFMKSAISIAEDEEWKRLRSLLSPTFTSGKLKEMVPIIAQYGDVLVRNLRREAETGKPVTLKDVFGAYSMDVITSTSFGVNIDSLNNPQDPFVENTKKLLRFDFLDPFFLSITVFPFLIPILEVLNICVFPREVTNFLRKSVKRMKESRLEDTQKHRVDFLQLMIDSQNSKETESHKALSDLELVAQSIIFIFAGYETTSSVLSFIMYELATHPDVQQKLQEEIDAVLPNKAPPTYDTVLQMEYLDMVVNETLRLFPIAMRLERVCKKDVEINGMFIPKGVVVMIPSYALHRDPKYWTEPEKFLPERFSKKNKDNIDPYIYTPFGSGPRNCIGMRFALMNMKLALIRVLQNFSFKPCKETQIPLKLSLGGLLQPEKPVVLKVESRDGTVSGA

Compound: CC(C)(CCCCOCCCCC(C)(C)C(=O)O)C(=O)O [Gemcabene, 6,6′-oxybis-(2,2′-dimethylhexanoic acid)]
- inhibition of CYP3A4 (CYP3A4 [1]): low level of inhibition
- triglyceride level at follow-up [2]: 363 mg/dL
- ApoA-I average % increase ([3]; 150 mg/day, 12 weeks): 9.27%
- ApoB average % decrease ([3]; 150 mg/day, 12 weeks): −16.15%
- ApoC-III average % decrease ([3]; 150 mg/day, 12 weeks): 36.95%
- HDL-C average % increase ([3]; 150 mg/day, 12 weeks): 32.59%
- VLDL-C average % decrease ([3]; 150 mg/day, 12 weeks): 48.50%
- hs-CRP average % decrease ([3]; 150 mg/day, 12 weeks): −4.02%
- Triglycerides average % decrease ([3]; 150 mg/day): 52.09%
- Triglycerides average % decrease ([3]; 150 mg/day, listed as gemcabene): 52%
- ApoA-I average % increase ([3]; 300 mg/day, 12 weeks): −6.17%
- ApoB average % decrease ([3]; 300 mg/day, 12 weeks): 1.25%
- ApoC-III average % decrease ([3]; 300 mg/day, 12 weeks): 49.41%
- HDL-C average % increase ([3]; 300 mg/day, 12 weeks): 11.69%
- VLDL-C average % decrease ([3]; 300 mg/day, 12 weeks): 51.86%
- hs-CRP average % decrease ([3]; 300 mg/day, 12 weeks): −429.19%
- Triglycerides average % decrease ([3]; 300 mg/day): 61.18%
- Triglycerides average % decrease ([3]; 300 mg/day, listed as gemcabene): 61%
- ApoA-I average % increase ([3]; 600 mg/day, 12 weeks): −3.31%
- ApoB average % decrease ([3]; 600 mg/day, 12 weeks): −3.70%
- ApoC-III average % decrease ([3]; 600 mg/day, 12 weeks): 30.89%
- HDL-C average % increase ([3]; 600 mg/day, 12 weeks): −4.02%
- VLDL-C average % decrease ([3]; 600 mg/day, 12 weeks): 28.73%
- hs-CRP average % decrease ([3]; 600 mg/day, 12 weeks): 33.50%
- Triglycerides average % decrease ([3]; 600 mg/day): 36.44%
- ApoA-I average % increase ([3]; 900 mg/day, 12 weeks): 0.47%
- ApoB average % decrease ([3]; 900 mg/day, 12 weeks): 2.26%
- ApoC-III average % decrease ([3]; 900 mg/day, 12 weeks): 20.36%
- HDL-C average % increase ([3]; 900 mg/day, 12 weeks): 1.03%
- VLDL-C average % decrease ([3]; 900 mg/day, 12 weeks): 17.10%
- hs-CRP average % decrease ([3]; 900 mg/day, 12 weeks): 66.64%
- Triglycerides average % decrease ([3]; 900 mg/day): 0.90%
- increase in HDL-C levels ([3]; one patient (FIG. 1), 150 mg/day, 12 weeks): 27%
- serum triglyceride level after treatment ([3]; one patient (FIG. 1), 150 mg/day, 12 weeks post-treatment, TG 550 mg/dL at initiation): 210 mg/dL
- fall in triglyceride level ([3]; one patient (FIG. 1), 150 mg/day, 12 weeks, TG 550 mg/dL at initiation): 62%
- reduction in triglyceride levels ([4]; 150 mg dose): 26.6%
- reduction in triglyceride levels ([4]; 300 mg dose): 38.9%
- effect in drug-drug interaction study with simvastatin (CYP3A4 [5]): no clinically relevant effect
